Like-named read-outs stand apart in the source and are kept apart here.
Key:
[1] = target: Human α2δ-1 Subunit of Cav2.2 Calcium Channel (Homo sapiens, UniProt P54289); assay: biochemical; type: binding
[2] = target: human μ-opioid receptor (Homo sapiens, UniProt P35372); assay: biochemical; type: binding
[3] = read-out: Ki (nM) alpha2delta Hum
[4] = Table 1, human α2δ-1 enriched membranes, 15 nM [3H]-Gabapentin, read-out: Ki (nM) alpha2delta Hum
[5] = Table 2 (dual compounds), human α2δ-1 enriched membranes, 15 nM [3H]-Gabapentin, read-out: Ki (nM) alpha2delta Hum

Chain of Human α2δ-1 Subunit of Cav2.2 Calcium Channel (P54289 25-1103): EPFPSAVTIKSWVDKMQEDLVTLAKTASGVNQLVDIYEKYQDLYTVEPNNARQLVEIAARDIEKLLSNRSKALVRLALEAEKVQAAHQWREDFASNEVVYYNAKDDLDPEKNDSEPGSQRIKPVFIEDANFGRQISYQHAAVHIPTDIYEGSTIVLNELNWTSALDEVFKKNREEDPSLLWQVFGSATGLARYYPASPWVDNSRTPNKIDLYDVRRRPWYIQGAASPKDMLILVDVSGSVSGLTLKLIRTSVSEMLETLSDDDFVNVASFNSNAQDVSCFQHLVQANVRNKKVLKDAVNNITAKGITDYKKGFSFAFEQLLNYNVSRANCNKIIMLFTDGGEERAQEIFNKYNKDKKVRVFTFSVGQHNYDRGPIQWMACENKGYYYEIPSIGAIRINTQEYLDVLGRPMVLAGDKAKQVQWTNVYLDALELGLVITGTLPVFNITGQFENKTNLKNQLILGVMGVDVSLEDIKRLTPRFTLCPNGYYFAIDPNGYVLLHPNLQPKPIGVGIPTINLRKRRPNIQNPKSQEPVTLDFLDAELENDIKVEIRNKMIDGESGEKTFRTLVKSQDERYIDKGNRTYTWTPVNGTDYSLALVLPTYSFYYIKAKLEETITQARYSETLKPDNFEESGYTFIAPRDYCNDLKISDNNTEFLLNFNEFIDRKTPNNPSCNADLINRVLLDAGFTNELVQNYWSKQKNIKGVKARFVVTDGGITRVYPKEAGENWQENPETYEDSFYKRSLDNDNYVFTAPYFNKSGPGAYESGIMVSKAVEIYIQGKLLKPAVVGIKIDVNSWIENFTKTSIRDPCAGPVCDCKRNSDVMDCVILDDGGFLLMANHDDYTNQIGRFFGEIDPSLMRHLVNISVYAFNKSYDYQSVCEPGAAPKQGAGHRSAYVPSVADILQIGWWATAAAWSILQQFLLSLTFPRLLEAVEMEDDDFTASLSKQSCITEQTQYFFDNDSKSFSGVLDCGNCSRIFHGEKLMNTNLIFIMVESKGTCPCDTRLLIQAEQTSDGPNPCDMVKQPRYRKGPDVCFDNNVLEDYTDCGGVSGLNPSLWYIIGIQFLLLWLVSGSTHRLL
Chain of human μ-opioid receptor (P35372 whole entry): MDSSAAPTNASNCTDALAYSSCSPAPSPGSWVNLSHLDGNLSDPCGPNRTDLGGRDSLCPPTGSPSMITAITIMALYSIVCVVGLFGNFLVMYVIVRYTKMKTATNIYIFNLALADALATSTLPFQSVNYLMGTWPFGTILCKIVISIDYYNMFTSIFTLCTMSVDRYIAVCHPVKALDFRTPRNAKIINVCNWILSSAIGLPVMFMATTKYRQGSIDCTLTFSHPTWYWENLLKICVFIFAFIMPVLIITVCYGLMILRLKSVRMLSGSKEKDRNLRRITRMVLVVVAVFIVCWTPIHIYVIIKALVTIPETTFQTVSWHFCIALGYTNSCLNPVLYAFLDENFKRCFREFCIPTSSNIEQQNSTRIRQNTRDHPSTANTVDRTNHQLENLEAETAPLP

| Ki [1, 3] | SMILES | Ki [1] | also measured |
| --- | --- | --- | --- |
|  | CNCCC(OCc1cccc(N2CCc3ccccc3C2=O)c1)c1cccs1 (centres unmarked) [Example 32, 2-(3-((3-(Methylamino)-1-(thiophen-2-yl)propoxy)methyl)phenyl)-3,4-dihydroisoquinolin-1(2H)-one] | 500 to 3000 nM | Ki [2]: 0.1 to 0.5 µM |
|  | CNCCC(OCc1cccc(CN2CCC(c3ccccc3)(N(C)C)CC2)c1)c1ccccc1 (centres unmarked) [Example 25] | 500 to 3000 nM | Ki [2]: < 0.1 µM |
|  | CNCC[C@@H](OCc1cccc(CN2CCC(c3ccccc3)(N(C)C)CC2)c1)c1ccccc1 [Example 26, (R)-N,N-dimethyl-1-(3-((3-(methylamino)-1-phenylpropoxy)methyl)benzyl)-4-phenylpiperidin-4-amine] | 500 to 3000 nM | Ki [2]: < 0.1 µM |
| > 3000 nM | CNCCC(OCc1cccc(N2CCNc3ccccc32)c1)c1ccccc1 (centres unmarked) [Example 47, 3-((3-(3,4-Dihydroquinoxalin-1(2H)-yl)benzyl)oxy)-N-methyl-3-phenylpropan-1-amine] |  | Ki ([2]; read-out: MU Ki): > 1 µM |
|  | CNCC[C@H](OCc1cccc(CN2CCC(c3ccccc3)(N(C)C)CC2)c1)c1cccs1 [Example 21, (S)-N,N-dimethyl-1-(3-((3-(methylamino)-1-(thiophen-2-yl)propoxy)methyl)benzyl)-4-phenylpiperidin-4-amine] |  | Ki [1, 4]: > 3000 nM; Ki [1, 5]: > 3000 nM |
| 500 to 3000 nM | CC[C@]1(N2CCN(CCc3cccc(O[C@H](CCNC)c4ccccc4)c3)CC2)CCOC(C)(C)C1 [Example 12a, (R)-3-(3-(2-(4 ((S)-4-ethyl-2,2-dimethyltetrahydro-2H-pyran-4-yl)piperazin-1-yl)ethyl)phenoxy)-N-methyl-3-phenylpropan-1-amine] |  |  |
|  | CNCCC(Oc1ccc(CN2CCc3ccccc3C2)c(F)c1)c1cccs1 (centres unmarked) [Example 55, 3-(4-((3,4-Dihydroisoquinolin-2(1H)-yl)methyl)-3-fluorophenoxy)-N-methyl-3-(thiophen-2-yl)propan-1-amine] | > 3000 nM |  |
| 500 to 3000 nM | CNCC[C@@H](OCc1cccc(CN2CCN([C@@]3(C(=O)c4ccccn4)CCOC(C)(C)C3)CC2)c1)c1ccccc1 [Example 28, ((S)-2,2-dimethyl-4-(4-(3-(((R)-3-(methylamino)-1-phenylpropoxy)methyl)benzyl)piperazin-1-yl)tetrahydro-2H-pyran-4-yl)(pyridin-2-yl)methanone] |  |  |
|  | CNCCC(Oc1cccc(C(=O)N2CCC(c3ccccc3)(N(C)C)CC2)c1)c1cccs1 (centres unmarked) [Example 7, (4-(Dimethylamino)-4-phenylpiperidin-1-yl)(3-(3-(methylamino)-1-(thiophen-2-yl)propoxy)phenyl)methanone] |  | Ki [1, 4]: 500 to 3000 nM; Ki [1, 5]: 500 to 3000 nM |
|  | CNCC[C@@H](OCc1cccc(CN2CCC(c3cccc(O)c3)(N(C)C)CC2)c1)c1cccs1 [Example 24, (R)-3-(4-(dimethylamino)-1-(3-((3-(methylamino)-1-(thiophen-2-yl)propoxy)methyl)benzyl)piperidin-4-yl)phenol] | 500 to 3000 nM |  |
| > 3000 nM | CNCC[C@H](Oc1cccc(CN2CCN([C@@]3(C(=O)c4ccccn4)CCOC(C)(C)C3)CC2)c1)c1cccs1 [Example 19, ((S)-2,2-dimethyl-4-(4-(3-((S)-3-(methylamino)-1-(thiophen-2-yl)propoxy)benzyl)piperazin-1-yl)tetrahydro-2H-pyran-4-yl)(pyridin-2-yl)methanone] |  |  |
| 500 to 3000 nM | CNCC[C@H](Oc1ccc(CN2CCn3cccc3C2=O)cc1)c1cccs1 [Example 53, (S)-2-(4-(3-(methylamino)-1-(thiophen-2-yl)propoxy)benzyl)-3,4-dihydropyrrolo[1,2-a]pyrazin-1(2H)-one] |  |  |
|  | CNCC[C@H](OCc1cccc(CN2CCC(c3ccccc3)(N(C)C)CC2)c1)c1ccccc1 [Example 27, (S)-N,N-dimethyl-1-(3-((3-(methylamino)-1-phenylpropoxy)methyl)benzyl)-4-phenylpiperidin-4-amine] | > 3000 nM | Ki [2]: < 0.1 µM |
|  | CNCC[C@H](Oc1cccc(CN2CCC(c3ccccc3)(N(C)C)CC2)c1)c1cccs1 [Example 15, (S)-N,N-dimethyl-1-(3-(3-(methylamino)-1-(thiophen-2-yl)propoxy)benzyl)-4-phenylpiperidin-4-amine] | 500 to 3000 nM |  |
|  | CNCC[C@H](OCc1cccc(CN2CCC(c3cccc(O)c3)(N(C)C)CC2)c1)c1cccs1 [Example 23, (S)-3-(4-(dimethylamino)-1-(3-((3-(methylamino)-1-(thiophen-2-yl)propoxy)methyl)benzyl)piperidin-4-yl)phenol] | > 3000 nM |  |
|  | CNCCC(Oc1ccc(CN2CCC(c3ccccc3)(N(C)C)CC2)cc1)c1cccs1 (centres unmarked) [Example 51, N,N-dimethyl-1-(4-(3-(methylamino)-1-(thiophen-2-yl)propoxy)benzyl)-4-phenylpiperidin-4-amine] | > 3000 nM |  |

— patent publication US20200270237A1 (priority 2017, published 2020)
